One experiment addresses T1, BSA (Bos taurus, UniProt P02769).
T1 construct: gene ALB
Briefly: UV-vis absorption spectra (Soret shift of complex). In kind it is binding. The following applies: PBS, 37 °C, 15 min; hemin in excess over BSA.

In another experiment the target is T2, Cig1 (Cryptococcus neoformans, UniProt J9VUB8).
T2 construct: gene CNAG_01653
The following applies: PBS, 25 °C; hemin from DMSO stock.

The values below come from PMC12329525, “All-stage targeted therapy for invasive cryptococcosis through interaction between the secretory protein Cig1 and hemin” (Asian Journal of Pharmaceutical Sciences, 2025).

T1 sequence (P02769 25-607): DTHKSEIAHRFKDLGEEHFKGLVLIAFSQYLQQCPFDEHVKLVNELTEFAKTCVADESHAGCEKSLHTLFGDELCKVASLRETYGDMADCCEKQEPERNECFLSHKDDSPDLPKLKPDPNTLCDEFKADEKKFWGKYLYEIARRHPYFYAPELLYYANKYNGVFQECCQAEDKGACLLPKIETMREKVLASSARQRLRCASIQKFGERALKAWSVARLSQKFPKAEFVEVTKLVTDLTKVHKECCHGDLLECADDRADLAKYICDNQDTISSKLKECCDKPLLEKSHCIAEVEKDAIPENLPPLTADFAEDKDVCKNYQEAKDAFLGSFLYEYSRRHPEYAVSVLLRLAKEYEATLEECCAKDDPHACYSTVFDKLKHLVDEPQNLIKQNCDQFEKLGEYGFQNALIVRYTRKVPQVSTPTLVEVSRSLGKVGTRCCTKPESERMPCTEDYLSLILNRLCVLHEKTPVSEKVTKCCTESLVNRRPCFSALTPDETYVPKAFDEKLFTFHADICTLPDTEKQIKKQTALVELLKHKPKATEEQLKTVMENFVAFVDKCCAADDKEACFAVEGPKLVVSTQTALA
T2 sequence (J9VUB8 entry or part of it): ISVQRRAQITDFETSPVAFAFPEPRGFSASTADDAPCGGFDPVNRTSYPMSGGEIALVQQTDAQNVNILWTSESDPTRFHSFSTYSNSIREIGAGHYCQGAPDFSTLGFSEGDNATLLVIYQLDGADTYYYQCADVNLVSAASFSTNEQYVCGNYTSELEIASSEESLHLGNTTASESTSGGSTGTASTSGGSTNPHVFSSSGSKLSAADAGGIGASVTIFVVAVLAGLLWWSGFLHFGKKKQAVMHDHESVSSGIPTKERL

In the case of `C=CC1=C(C)C2=Cc3c(C=C)c(C)c4[n]3[Fe]([Cl])[n]3c(c(C)c(CCC(=O)O)c3=CC3=NC(=C4)C(C)=C3CCC(=O)O)=CC1=N2` [hemin], the “UV-vis absorption spectra (Soret shift of complex)” value on BSA is “Hemin@BSA exhibited a red shift in its absorption peak”. Moreover, the Kd at Cig1 is 9.81×10^‒7 mol/l.
